Test results: patent publication US11903959B2 (EMORY UNIVERSITY, priority 2017, dated 2024)
Where “and” joins values, the source holds several entries; their conditions need not be identical. Identical values can stand only once. Like-named read-outs stand apart in the source and are kept apart here.

How the values were obtained:
HRV-14 = assay: microbe, parasite or virus in culture; type: cell-based
WNV = assay: microbe, parasite or virus in culture; type: cell-based; settings: West Nile virus, Vero 76
[1] = system: pestivirus and hepacivirus; settings: Stuyver et al., Antimicrob Agents Chemother, 2003; cited from earlier work
[2] = Cytotoxicity (CC50) run with antiviral assays, HeLa-Ohio cells; settings: human
SARS = assay: microbe, parasite or virus in culture; type: cell-based, SARS coronavirus; settings: Severe acute respiratory syndrome coronavirus
in vivo [3] = settings: female, DBA-1J, mouse, po
CHIKV = assay: microbe, parasite or virus in culture; type: cell-based, Chikungunya virus
Flu B = assay: microbe, parasite or virus in culture; type: cell-based; settings: Influenza B virus, MDCK
Enterovirus-71 = type: cell-based
[4] = Plasma pharmacokinetics in mice after a single dose of EIDD-2800; settings: ICR (CD-1), mouse, oral, 180 mg/kg
DENV2 = assay: microbe, parasite or virus in culture; type: cell-based; settings: Dengue virus
Enterovirus-68 = type: cell-based
in vivo [5] = settings: dog, 140 mg/kg
[6] = female, in vivo, po
[7] = Cytotoxicity (CC50) run with antiviral assays, HG23 cells; settings: human
Tacaribe virus = assay: microbe, parasite or virus in culture; type: cell-based; settings: Mammarenavirus tacaribeense, Vero, Vero cells
Heartland virus = assay: microbe, parasite or virus in culture; type: cell-based; settings: Vero
Flu A H7N9 (High Path) = assay: microbe, parasite or virus in culture; type: cell-based; settings: Influenza A virus, H7N9, MDCK, MDCK cells
[8] = Cytotoxicity (CC50) run with antiviral assays, BHK cells; type: cell-based; settings: hamster, Flaviviridae table
Procedure: Four-concentration CPE inhibition assays are performed. Confluent or near-confluent cell culture monolayers in 96-well disposable microplates are prepared. Cells are maintained in MEM or DMEM supplemented with FBS as required for each cell line. For antiviral assays the same medium is used but with FBS reduced to 2% or less and supplemented with 50 μg/mL gentamicin. The test compound is prepared at four log10 final concentrations, usually 0.1, 1.0, 10, and 100 μg/mL or μM. The virus control and cell control wells are on every microplate. In parallel, a known active drug is tested as a positive control drug using the same method as is applied for test compounds. The positive control is tested with each test run. The assay is set up by first removing growth media from the 96-well plates of cells. Then the test compound is applied in 0.1 mL volume to wells at 2× concentration. […] The dye content in each well is quantified using a 96-well spectrophotometer at 540 nm wavelength. […]
This assay involves similar methodology to what is described in the previous paragraphs using 96-well microplates of cells. […] The incorporated dye content is quantified as described above. […] Compounds observed to be active above are further evaluated by VYR assay. […] Wells are scored for presence or absence of virus after distinct CPE (measured by neutral red uptake) is observed. […]

O=c1nc(NO)ccn1C1OC(CO)C(O)C1O (centres unmarked) [EIDD-1931, 1-(3,4-dihydroxy-5-(hydroxymethyl)tetrahydrofuran-2-yl)-4-(hydroxyamino)pyrimidin-2-one]
EC50 (HRV-14): 1.36 µM | EC50 (HRV-14; Rhinovirus B, HRV14): 1.28 µM | EC50 (WNV): > 400 µM | antiviral activities [1]: antipestivirus and antihepacivirus activities | CC50 [2]: > 40 µM | EC90 (SARS; Vero 76): 0.56 µM | EC90 (SARS; Vero C1008): < 0.8 µM | EC50 (SARS; Vero C1008, SARS, Vero E6 cells): < 0.8 µM | half-life (in vivo [3]): 4.1 to 4.7 h | Cmax (in vivo [3]; 30 mg/kg): 3000 ng/mL | Cmax (in vivo [3]; 100 mg/kg): 7700 ng/mL | Cmax (in vivo [3]; 300 mg/kg): 11700 ng/mL | tmax (in vivo [3]; 300 mg/kg): 0.25 to 0.5 h | EC50 (CHIKV): 1.8 µM | EC50 (CHIKV; Chikungunya virus, Vero): 1.28 µM | EC50 (Flu B): < 0.4 µM | EC50 (Enterovirus-71): 3.44 µM and 3.36 µM | AUC0->t (Vero cells): 228.6 pmol · h/M cells | AUC(0-inf) [4]: 42.5 µM·h | Cmax [4]: 11.4 µM | tmax [4]: 0.5 h | EC50 (DENV2; DENV2, Vero 76): 14 µM | EC50 (DENV2; DENV2, Vero 76, DENV2, Vero76 cells): 12.8 µM | EC50 (Enterovirus-68): 1.28 µM and 1.16 µM | Cmax (in vivo [5]): 113 ± 21.1 µM | half-life (in vivo [5]): 4.8 ± 1 h | t1/2 ([6]; 4 mg/kg): 8.2 ± 1.7 h | t1/2 ([6]; 20 mg/kg): 4.7 ± 1.3 h | t1/2 ([6]; outbred, 128 mg/kg): 5.1 ± 0.8 h | t1/2 ([6]; outbred, 512 mg/kg): 4.2 ± 0.6 h | CC50 [7]: > 100 µM | EC50 (Tacaribe virus): 14.4 µM | EC90 (Heartland virus): 7.84 µM | EC50 (Flu A H7N9 (High Path)): > 48 µM | CC50 [8]: 30 µM
